# ChEMBL document CHEMBL1157844, “QSAR study of flavonoids and biflavonoids as influenza H1N1 virus neuraminidase inhibitors” (Eur J Med Chem, 2010)
# How the values were obtained:
# [1] = biological target: Neuraminidase (Influenza A virus (A/Puerto Rico/8/1934(H1N1)), UniProt P03468); assay: (§1) Inhibition of Influenza A PR/8/34 H1N1 virus neuraminidase activity by MUN-ANA substrate based fluorimetric assay
# [2] = biological target: Neuraminidase (Influenza A virus (A/Puerto Rico/8/1934(H1N1))) (UniProt P03468); assay: as §1; parameters: unit not given here
# Chain of Neuraminidase (Influenza A virus (A/Puerto Rico/8/1934(H1N1))) (P03468 whole entry): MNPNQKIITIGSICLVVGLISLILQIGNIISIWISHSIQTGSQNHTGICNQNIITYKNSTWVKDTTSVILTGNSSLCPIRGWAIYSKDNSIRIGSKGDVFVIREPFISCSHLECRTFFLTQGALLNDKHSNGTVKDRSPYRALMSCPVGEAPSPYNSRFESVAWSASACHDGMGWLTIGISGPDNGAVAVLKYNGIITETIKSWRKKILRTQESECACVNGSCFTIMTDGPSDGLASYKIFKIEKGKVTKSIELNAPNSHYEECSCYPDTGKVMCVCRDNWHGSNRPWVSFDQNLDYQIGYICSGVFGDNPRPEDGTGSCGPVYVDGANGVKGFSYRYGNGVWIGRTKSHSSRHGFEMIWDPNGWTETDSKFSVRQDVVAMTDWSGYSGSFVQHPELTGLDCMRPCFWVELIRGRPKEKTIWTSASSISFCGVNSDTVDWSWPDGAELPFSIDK
# Chain of Neuraminidase (Influenza A virus (A/Puerto Rico/8/1934(H1N1)), UniProt P03468) (P03468 whole entry): as above
Structure (SMILES),IC50 [1],logIC50 [2]
COc1ccc(-c2cc(=O)c3c(O)c(Oc4ccc(-c5cc(=O)c6c(O)cc(OC)cc6o5)cc4)c(O[C@]4(C(=O)O)C[C@H](O)[C@@H](NC(C)=O)[C@H]([C@@H](O)[C@@H](O)CO)O4)cc3o2)cc1,22.3 µM,1.28
O=C1/C(=C\c2ccccc2)Oc2cc(O)ccc21,72 µM,1.23
O=C(Oc1cc(O)c2c(c1)OC(c1cc(O)c(O)c(O)c1)CC2)c1cc(O)c(O)c(O)c1 (stereo unspecified),35.5 µM,1.2
O=C1/C(=C\c2ccc(O)cc2)Oc2cc(O)ccc21,22 µM,0.748
O=c1c(O[C@H]2O[C@@H](CO)[C@H](O)[C@@H](O)[C@@H]2O[C@@H]2OC[C@@H](O)[C@H](O)[C@H]2O)c(-c2ccc(O)cc2)oc2cc(O)cc(O)c12 (stereo in doubt),42.2 µM,1.39
COc1c(O)cc(O)c2c(=O)cc(-c3ccc(O)cc3)oc12 [4'-HYDROXYWOGONIN],43.8 µM,1.12
O=c1cc(-c2ccc(O)cc2)oc2cc(O)cc(O)c12 [APIGENIN],31.6 µM,0.932
O=c1cc(-c2ccccc2)oc2cc(O)cc(O)c12 [CHRYSIN],45.7 µM,1.06
O=c1c(-c2ccc(O)cc2)coc2cc(O)ccc12 [DAIDZEIN],37.1 µM,0.975
O=c1cc(-c2ccc(O)c(O)c2)oc2cc(O[C@@H]3O[C@H](CO)[C@@H](O)[C@H](O)[C@H]3O)cc(O)c12 [GALUTEOLIN],47.4 µM,1.33
O=c1c(-c2ccc(O)cc2)coc2cc(O)cc(O)c12 [GENISTEIN],77.1 µM,1.32
COc1cc(O)c2c(=O)cc(-c3ccc(OC)c(-c4c(O)cc(O)c5c(=O)cc(-c6ccc(O)cc6)oc45)c3)oc2c1 [GINKGETIN],97.1 µM,1.74
O=c1cc(-c2ccc(Oc3c(O)cc4oc(-c5ccc(O)cc5)cc(=O)c4c3O)cc2)oc2cc(O)cc(O)c12 [HINOKIFLAVONE],77.6 µM,1.62
COc1c(O)cc2oc(-c3ccc(O)cc3)cc(=O)c2c1O [HISPIDULIN],46.3 µM,1.14
O=c1c(O)c(-c2ccc(O)cc2)oc2cc(O)cc(O)c12 [KAEMPFEROL],58.6 µM,1.23
O=c1cc(-c2ccc(O)c(O)c2)oc2cc(O)cc(O)c12 [LUTEOLIN],33.7 µM,0.984
O=c1c(O)c(-c2cc(O)c(O)c(O)c2)oc2cc(O)cc(O)c12 [MYRICETIN],82.6 µM,1.42
O=c1c(O)c(-c2ccc(O)c(O)c2)oc2cc(O)cc(O)c12 [QUERCETIN],58.4 µM,1.25
COc1cc(O)c2c(=O)c(O)c(-c3ccc(O)cc3)oc2c1 [RHAMNOCITRIN],51.5 µM,1.19
C[C@@H]1O[C@@H](OC[C@H]2O[C@@H](Oc3c(-c4ccc(O)c(O)c4)oc4cc(O)cc(O)c4c3=O)[C@H](O)[C@@H](O)[C@@H]2O)[C@H](O)[C@H](O)[C@H]1O [RUTIN],51 µM,1.49
O=c1cc(-c2ccc(O)cc2)oc2cc(O)c(O)c(O)c12 [SCUTELLAREIN],50.6 µM,1.16
O=C1/C(=C/c2ccc(O)c(O)c2)Oc2cc(O)ccc21 [SULFURETIN],29.6 µM,0.903
O=c1cc(-c2ccc(O)cc2)oc2c([C@@H]3O[C@H](CO)[C@@H](O)[C@H](O)[C@H]3O)c(O)cc(O)c12 [VITEXIN],48.2 µM,1.32
